Test system: Human THP-1 cells
Assay: Cytokine release by THP-1 cells stimulated with RADA-16 or LPS (PROTEOME PROFILER Array)
Type: cell-based
Procedure: The anti-inflammatory effect of a SAP was examined using an in vitro assay to assess cytokine release by human THP-1 cells in the presence of SAP. Measurement of THP-1 cell activation in response to antigen was assessed by cytokine release.
Human THP-1 cells in culture media (1×10^6 cells in 1 ml of Culture medium) were exposed to the self-assembling peptide RADARADARADARADA (“RADA-16”; SEQ ID NO: 1), at a concentration of 1 μg/well, 10 μg/well, or 100 μg/well.
Human THP-1 cells in the absence of RADA-16 were used as a control to assess the baseline level of cytokine production in “resting” non-actived THP-1 cells.
To assess cytokine release upon THP-1 cell activation, lipopolysaccharides (LPS) from Salmonella typhimurium (catalog no. L-7261; Sigma-Aldrich, St. Louis, MO) were added to THP-1 cells, at a concentration of 1 μg/ml.
The release of cytokines in response to exposure of THP-1 cells to RADA-16 (SEQ ID NO: 1) or LPS was measured using the PROTEOME PROFILER™ Array kit, commercially available as a test strip kit for detection of cytokines in solution (R&D Systems, Inc., Catalog Number ARY005). The assay was carried out according to the manufacturer's guide lines.

Sequence: RADARADARADARADA [RADA-16, self-assembling peptide]
- C5a (Complement Component 5a) release (1 mcg (1 μg/well) RADA-16): 0
- CD40 Ligand (CD154) release (1 mcg (1 μg/well) RADA-16): 0
- G-CSF (CSF −, CSF-3) release (1 mcg (1 μg/well) RADA-16): 0
- GM-CSF (CSF |, CSF-2) release (1 mcg (1 μg/well) RADA-16): 0
- GRO | (CXCL1) release (1 mcg (1 μg/well) RADA-16): 0
- I-309 (CCL1) release (1 mcg (1 μg/well) RADA-16): 0
- I-TAC (CXCL11) release (1 mcg (1 μg/well) RADA-16): 0
- IFN-• (Type II IFN) release (1 mcg (1 μg/well) RADA-16): 0
- IL-1 alpha (IL-1F1) release (1 mcg (1 μg/well) RADA-16): 0
- IL-1 beta (IL-1F2) release (1 mcg (1 μg/well) RADA-16): 0
- IL-1ra (IL-1F3) release (1 mcg (1 μg/well) RADA-16): 22.59
- IL-2 release (1 mcg (1 μg/well) RADA-16): 0
- IL-4 release (1 mcg (1 μg/well) RADA-16): 0
- IL-5 release (1 mcg (1 μg/well) RADA-16): 0
- IL-6 release (1 mcg (1 μg/well) RADA-16): 0
- IL-8 (CXCL8) release (1 mcg (1 μg/well) RADA-16): 0
- IL-10 release (1 mcg (1 μg/well) RADA-16): 0
- IL-12 p 70 release (1 mcg (1 μg/well) RADA-16): 0
- IL-13 release (1 mcg (1 μg/well) RADA-16): 0
- IL-16 (LCF) release (1 mcg (1 μg/well) RADA-16): 0
- IL-17E release (1 mcg (1 μg/well) RADA-16): 0
- IL-17 release (1 mcg (1 μg/well) RADA-16): 0
- IL-23 release (1 mcg (1 μg/well) RADA-16): 0
- IL-27 release (1 mcg (1 μg/well) RADA-16): 0
- IL-32 release (1 mcg (1 μg/well) RADA-16): 0
- IP-10 (CXCL10) release (1 mcg (1 μg/well) RADA-16): 0
- MCP-1 (CCL2) release (1 mcg (1 μg/well) RADA-16): 0
- MIP-1 | (CCL3) release (1 mcg (1 μg/well) RADA-16): 0
- MIP-1− (CCL4) release (1 mcg (1 μg/well) RADA-16): 0
- SDF-1 (CXCL12) release (1 mcg (1 μg/well) RADA-16): 0
- TNF- | (TNFSF2) release (1 mcg (1 μg/well) RADA-16): 0
- sICAM-1 (CD54) release (1 mcg (1 μg/well) RADA-16): 0
- sTREM-1 release (1 mcg (1 μg/well) RADA-16): 0
- C5a (Complement Component 5a) release (10 mcg (10 μg/well) RADA-16): 0
- CD40 Ligand (CD154) release (10 mcg (10 μg/well) RADA-16): 0
- G-CSF (CSF −, CSF-3) release (10 mcg (10 μg/well) RADA-16): 0
- GM-CSF (CSF |, CSF-2) release (10 mcg (10 μg/well) RADA-16): 0
- GRO | (CXCL1) release (10 mcg (10 μg/well) RADA-16): 0
- I-309 (CCL1) release (10 mcg (10 μg/well) RADA-16): 0
- I-TAC (CXCL11) release (10 mcg (10 μg/well) RADA-16): 0
- IFN-• (Type II IFN) release (10 mcg (10 μg/well) RADA-16): 0
- IL-1 alpha (IL-1F1) release (10 mcg (10 μg/well) RADA-16): 0
- IL-1 beta (IL-1F2) release (10 mcg (10 μg/well) RADA-16): 0
- IL-1ra (IL-1F3) release (10 mcg (10 μg/well) RADA-16): 0
- IL-2 release (10 mcg (10 μg/well) RADA-16): 0
- IL-4 release (10 mcg (10 μg/well) RADA-16): 0
- IL-5 release (10 mcg (10 μg/well) RADA-16): 0
- IL-6 release (10 mcg (10 μg/well) RADA-16): 0
- IL-8 (CXCL8) release (10 mcg (10 μg/well) RADA-16): 0
- IL-10 release (10 mcg (10 μg/well) RADA-16): 0
- IL-12 p 70 release (10 mcg (10 μg/well) RADA-16): 0
- IL-13 release (10 mcg (10 μg/well) RADA-16): 0
- IL-16 (LCF) release (10 mcg (10 μg/well) RADA-16): 0
- IL-17E release (10 mcg (10 μg/well) RADA-16): 0
- IL-17 release (10 mcg (10 μg/well) RADA-16): 0
- IL-23 release (10 mcg (10 μg/well) RADA-16): 0
- IL-27 release (10 mcg (10 μg/well) RADA-16): 0
- IL-32 release (10 mcg (10 μg/well) RADA-16): 0
- IP-10 (CXCL10) release (10 mcg (10 μg/well) RADA-16): 0
- MCP-1 (CCL2) release (10 mcg (10 μg/well) RADA-16): 0
- MIP-1 | (CCL3) release (10 mcg (10 μg/well) RADA-16): 0
- MIP-1− (CCL4) release (10 mcg (10 μg/well) RADA-16): 0
- SDF-1 (CXCL12) release (10 mcg (10 μg/well) RADA-16): 0
- TNF- | (TNFSF2) release (10 mcg (10 μg/well) RADA-16): 0
- sICAM-1 (CD54) release (10 mcg (10 μg/well) RADA-16): 0
- sTREM-1 release (10 mcg (10 μg/well) RADA-16): 0
- C5a (Complement Component 5a) release (100 mcg (100 μg/well) RADA-16): 0
- CD40 Ligand (CD154) release (100 mcg (100 μg/well) RADA-16): 0
- G-CSF (CSF −, CSF-3) release (100 mcg (100 μg/well) RADA-16): 0
- GM-CSF (CSF |, CSF-2) release (100 mcg (100 μg/well) RADA-16): 0
- GRO | (CXCL1) release (100 mcg (100 μg/well) RADA-16): 0
- I-309 (CCL1) release (100 mcg (100 μg/well) RADA-16): 0
- I-TAC (CXCL11) release (100 mcg (100 μg/well) RADA-16): 0
- IFN-• (Type II IFN) release (100 mcg (100 μg/well) RADA-16): 0
- IL-1 alpha (IL-1F1) release (100 mcg (100 μg/well) RADA-16): 0
- IL-1 beta (IL-1F2) release (100 mcg (100 μg/well) RADA-16): 0
- IL-1ra (IL-1F3) release (100 mcg (100 μg/well) RADA-16): 0
- IL-2 release (100 mcg (100 μg/well) RADA-16): 0
- IL-4 release (100 mcg (100 μg/well) RADA-16): 0
- IL-5 release (100 mcg (100 μg/well) RADA-16): 0
- IL-6 release (100 mcg (100 μg/well) RADA-16): 0
- IL-8 (CXCL8) release (100 mcg (100 μg/well) RADA-16): 0
- IL-10 release (100 mcg (100 μg/well) RADA-16): 0
- IL-12 p 70 release (100 mcg (100 μg/well) RADA-16): 0
- IL-13 release (100 mcg (100 μg/well) RADA-16): 0
- IL-16 (LCF) release (100 mcg (100 μg/well) RADA-16): 0
- IL-17E release (100 mcg (100 μg/well) RADA-16): 0
- IL-17 release (100 mcg (100 μg/well) RADA-16): 0
- IL-23 release (100 mcg (100 μg/well) RADA-16): 0
- IL-27 release (100 mcg (100 μg/well) RADA-16): 0
- IL-32 release (100 mcg (100 μg/well) RADA-16): 0
- IP-10 (CXCL10) release (100 mcg (100 μg/well) RADA-16): 0
- MCP-1 (CCL2) release (100 mcg (100 μg/well) RADA-16): 0
- MIP-1 | (CCL3) release (100 mcg (100 μg/well) RADA-16): 0
- MIP-1− (CCL4) release (100 mcg (100 μg/well) RADA-16): 0
- SDF-1 (CXCL12) release (100 mcg (100 μg/well) RADA-16): 0
- TNF- | (TNFSF2) release (100 mcg (100 μg/well) RADA-16): 0
- sICAM-1 (CD54) release (100 mcg (100 μg/well) RADA-16): 0
- sTREM-1 release (100 mcg (100 μg/well) RADA-16): 0
- induction of cytokine release relative to baseline (resting THP-1 cells, 1, 10 or 100 μg/well, no LPS): did not induce cytokine release beyond baseline levels
